The record followed here is patent publication US20240383900A1, “SUBSTITUTED PYRAZOLO [1,5-A]PYRIMIDINE-7-AMINE COMPOUNDS AS CDK INHIBITORS AND THEIR THERAPEUTIC USE” (Carrick Therapeutics Limited, priority 2021, published 2024).

Read-outs that look alike come from different tables or passages of the source.

The subject of data set [1] is A673 cells. Description: Cytotoxicity in A673 cells (Cell Titer Glo viability). Type of data set: cell-based. The following applies: for IC50: Homo sapiens; for Ratio of Biochemical Potency:Cellular Potency: CDK12 IC50 / A673 IC50. In a few lines: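 Cells plated at 1.2×10^5 per well in DMEM+10% FBS, 24 h, then compound series ± MLN4924 (30 nM final) in 0.1% DMSO for 72 h. Viability by Cell Titer Glo luminescence, normalised to vehicle (100%) and 0.1% Triton x-100 (0%); MLN4924 curves normalised to MLN4924-treated controls.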
(Cellular ATP, detected with luciferase, serves as a proxy for viable cell number.)

The target in data set [2] is Cyclin K (Homo sapiens (Human), UniProt O75909). Description: Western blotting analysis of Cyclin K depletion in cell culture. Type of data set: cell-based. The following applies: A673 cells, 1 μM test compound, 2 hours, absence and presence of 10 μM MLN4924. How it is done: A673 cells were incubated for 2 hours with of 1 μM compound in presence or in absence of 10 μM of the NAE (NEDD8 activating enzyme) inhibitor MLN4924 (Cell Signalling Technologies). Cells were washed 2× with cold Phosphate Buffered Saline (PBS, Sigma Aldrich), followed by the addition of lysis buffer for 15 minutes on ice before harvesting and centrifugation.
Protein content in the cell lysate was assessed by BCA assay (Thermo Fisher). Samples were then prepared with 4× Laemmlli Buffer (Bio-Rad) and heated to 95° C. for 5 minutes. Each sample was loaded onto a Mini-PROTEAN TGX Stain Free Gel (Bio-Rad) at 50 μg protein/well. SDS-PAGE was performed and then protein was transferred onto a PVDF membrane using a Trans-Blot® Turbo™ Midi PVDF Transfer Pack (Bio-Rad. Membranes were blocked in TBS-T (Invitrogen), 5% (w/v) milk powder (Marvel) overnight at 4° C.
Membranes were incubated with anti-CCNK antibody (rabbit) primary antibody (Abcam) and anti-GAPDH antibody (rabbit) in TBS-T for 2 hours. Membranes were then washed three times with TBS-T, before incubation secondary goat anti-rabbit HRP antibody (Cell Signalling Technologies) followed by 3× washing in TBS-T. Blots were imaged using a Chemidoc imager (Bio-Rad). Cyclin K depletion was measured as the observable drop in band intensity in compound treated samples relative to proteasome-inhibitor treated samples.
Cyclin K degradation was evaluated by Western blotting for cyclin K in A673 cells exposed to 1 μM test compound for 2 hours in the absence and presence of 10 μM MLN4924 (to inhibit proteosome activity).

In data set [3] the test system is A673 cells. Description: A673 cytotoxic potency shift in the presence of MLN4924 (cyclin K degrader activity). Particulars: for Change of cytotoxic potency in the presence of MLN4924: 72 hours, presence and absence of 30 nM MLN4924; for Cyclin K Degrader Activity (A673 potency shift + MLN4924): 30 nM MLN4924, 72 hours. Type of data set: cell-based.
Data set [4] deals with Human CDK7/CycH/MAT1 (Homo sapiens (Human), UniProt P50613). Description: Radiometric protein kinase assay (33PanQinase Activity Assay), CDK7. Type of data set: biochemical. Particulars: ATP 3 μM.
Data set [5] has as its target Human CDK12 wt/CycK (Homo sapiens (Human), UniProt Q9NYV4). Description: Radiometric protein kinase assay (33PanQinase Activity Assay), CDK12. Particulars: for CDK7/CDK12: ratio of CDK7 IC50 to CDK12 IC50, greater than 1 indicates selectivity for CDK12. Type of data set: biochemical. Summed up: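 Radiometric 33P assay: ATP, test compound (in 10% DMSO) and premixed substrate/enzyme incubated 60 min at 30 °C, stopped with 2% H3PO4. 33Pi incorporation counted by scintillation; least-squares curve fit.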

[6] abbreviates: A673, read-out: Cellular Potency IC50 (nM) (in A673 cells).
[7] abbreviates: A673 cells, 72 hours, read-out: A673 IC50.
[8] abbreviates: ATP 0.3 μM, read-out: CDK12 IC50.
The mark [9] stands for this setting: read-out: CKD12 Biochemical Potency IC50.

Broadly, the IC50 is the concentration needed to halve the response being measured.

Sequence of Human CDK7/CycH/MAT1 (P50613 whole entry): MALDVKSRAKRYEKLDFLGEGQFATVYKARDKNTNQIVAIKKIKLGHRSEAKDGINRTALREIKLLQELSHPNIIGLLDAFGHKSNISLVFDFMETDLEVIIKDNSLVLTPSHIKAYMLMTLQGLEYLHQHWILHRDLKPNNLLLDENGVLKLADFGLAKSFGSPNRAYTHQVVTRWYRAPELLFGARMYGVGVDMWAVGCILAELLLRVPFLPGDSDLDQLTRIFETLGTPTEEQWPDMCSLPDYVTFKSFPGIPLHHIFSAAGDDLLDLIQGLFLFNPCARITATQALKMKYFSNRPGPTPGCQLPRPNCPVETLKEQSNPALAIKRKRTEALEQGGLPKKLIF
Sequence of Human CDK7/CycH/MAT1 (P51946 whole entry partner): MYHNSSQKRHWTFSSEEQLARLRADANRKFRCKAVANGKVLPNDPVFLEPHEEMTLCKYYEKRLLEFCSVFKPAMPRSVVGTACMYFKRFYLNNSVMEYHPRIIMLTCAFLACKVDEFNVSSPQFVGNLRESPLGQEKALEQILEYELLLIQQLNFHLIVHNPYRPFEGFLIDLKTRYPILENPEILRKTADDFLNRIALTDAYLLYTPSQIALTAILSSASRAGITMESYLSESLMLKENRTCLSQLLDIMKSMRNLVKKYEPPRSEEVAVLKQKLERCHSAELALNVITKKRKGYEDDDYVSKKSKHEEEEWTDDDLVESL
Sequence of Human CDK7/CycH/MAT1 (P51948 whole entry partner): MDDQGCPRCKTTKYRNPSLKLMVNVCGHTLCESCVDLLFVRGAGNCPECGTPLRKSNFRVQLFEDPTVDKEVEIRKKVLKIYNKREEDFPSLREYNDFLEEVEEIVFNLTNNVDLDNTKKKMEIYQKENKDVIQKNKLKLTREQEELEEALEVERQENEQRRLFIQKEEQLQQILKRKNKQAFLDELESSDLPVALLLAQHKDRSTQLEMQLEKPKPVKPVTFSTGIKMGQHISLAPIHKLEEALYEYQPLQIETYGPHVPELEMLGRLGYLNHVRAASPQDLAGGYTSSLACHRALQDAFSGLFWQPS
Sequence of Human CDK12 wt/CycK (Q9NYV4 whole entry): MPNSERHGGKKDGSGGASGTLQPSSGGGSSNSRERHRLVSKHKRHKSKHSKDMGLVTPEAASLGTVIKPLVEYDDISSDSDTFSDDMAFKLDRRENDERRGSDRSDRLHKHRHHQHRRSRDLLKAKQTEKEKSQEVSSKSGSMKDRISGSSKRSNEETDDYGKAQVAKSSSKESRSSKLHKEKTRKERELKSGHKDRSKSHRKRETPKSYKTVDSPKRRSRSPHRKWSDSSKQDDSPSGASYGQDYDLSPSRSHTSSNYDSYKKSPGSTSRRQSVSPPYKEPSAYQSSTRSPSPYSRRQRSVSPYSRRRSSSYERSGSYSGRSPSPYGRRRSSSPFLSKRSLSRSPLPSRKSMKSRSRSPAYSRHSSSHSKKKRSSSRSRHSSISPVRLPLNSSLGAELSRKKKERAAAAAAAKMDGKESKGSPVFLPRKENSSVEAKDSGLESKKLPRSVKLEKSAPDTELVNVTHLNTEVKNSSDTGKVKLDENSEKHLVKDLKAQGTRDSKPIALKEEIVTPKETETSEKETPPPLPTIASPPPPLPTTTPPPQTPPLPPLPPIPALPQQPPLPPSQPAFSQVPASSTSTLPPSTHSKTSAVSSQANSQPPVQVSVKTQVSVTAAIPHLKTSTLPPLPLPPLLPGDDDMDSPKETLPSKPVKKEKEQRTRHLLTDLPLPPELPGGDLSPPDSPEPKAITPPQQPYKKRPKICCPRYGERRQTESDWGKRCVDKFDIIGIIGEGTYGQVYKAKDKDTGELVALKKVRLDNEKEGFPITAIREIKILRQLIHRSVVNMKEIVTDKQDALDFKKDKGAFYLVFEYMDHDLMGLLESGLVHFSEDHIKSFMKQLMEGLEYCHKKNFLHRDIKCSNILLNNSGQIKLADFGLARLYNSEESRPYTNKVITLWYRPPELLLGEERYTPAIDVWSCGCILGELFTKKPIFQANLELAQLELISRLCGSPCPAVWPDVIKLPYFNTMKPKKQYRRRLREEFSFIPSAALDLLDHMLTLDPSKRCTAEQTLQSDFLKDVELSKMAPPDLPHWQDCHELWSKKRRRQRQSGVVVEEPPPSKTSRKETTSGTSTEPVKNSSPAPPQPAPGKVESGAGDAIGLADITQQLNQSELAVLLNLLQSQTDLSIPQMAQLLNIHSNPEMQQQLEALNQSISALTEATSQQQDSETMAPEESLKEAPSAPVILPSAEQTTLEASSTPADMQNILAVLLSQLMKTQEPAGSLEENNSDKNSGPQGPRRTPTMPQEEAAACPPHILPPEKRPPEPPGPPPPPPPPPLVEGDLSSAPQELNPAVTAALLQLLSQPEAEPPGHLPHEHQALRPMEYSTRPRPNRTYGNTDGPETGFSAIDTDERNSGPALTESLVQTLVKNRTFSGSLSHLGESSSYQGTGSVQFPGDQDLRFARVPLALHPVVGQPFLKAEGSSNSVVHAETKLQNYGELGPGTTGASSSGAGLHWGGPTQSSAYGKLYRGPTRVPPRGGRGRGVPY
Sequence of Human CDK12 wt/CycK (O75909 whole entry partner): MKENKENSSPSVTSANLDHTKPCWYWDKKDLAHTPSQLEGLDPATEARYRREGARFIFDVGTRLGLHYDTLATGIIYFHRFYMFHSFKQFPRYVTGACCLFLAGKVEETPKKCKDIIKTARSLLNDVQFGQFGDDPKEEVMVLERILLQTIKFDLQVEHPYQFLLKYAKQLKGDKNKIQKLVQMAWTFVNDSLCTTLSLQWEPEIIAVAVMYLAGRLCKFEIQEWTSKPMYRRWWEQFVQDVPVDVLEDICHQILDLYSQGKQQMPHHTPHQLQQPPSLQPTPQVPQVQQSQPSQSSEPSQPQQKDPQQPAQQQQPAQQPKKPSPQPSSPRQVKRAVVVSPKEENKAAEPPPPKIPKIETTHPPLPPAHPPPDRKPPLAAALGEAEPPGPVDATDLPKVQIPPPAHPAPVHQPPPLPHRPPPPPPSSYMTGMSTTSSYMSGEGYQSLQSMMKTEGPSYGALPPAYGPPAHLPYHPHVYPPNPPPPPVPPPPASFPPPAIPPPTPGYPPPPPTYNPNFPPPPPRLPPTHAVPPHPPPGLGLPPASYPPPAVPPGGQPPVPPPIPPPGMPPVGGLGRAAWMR

For `CC[C@H](CO)Nc1nc(NCc2ccc(-c3ccccn3)cc2)c2ncn(C(C)C)c2n1` [CR8, reference compound], the concentration for half-maximal inhibition (IC50) in data set [1] (setting [6]) and in data set [1] (setting [7]) was 84.5 nM each time. Moreover, the “Cyclin K degradation by Western blotting” value in data set [2] is “did cause proteosomal dependent degradation of Cyclin K”. The “Change of cytotoxic potency in the presence of MLN4924” value (from here on “Change of cytotoxic potency”) in data set [3] is given as “a decrease in potency”.
For `CCc1cnn2c(NCc3ccc(-c4ccccn4)cc3)cc(NC[C@H]3CCNC[C@@H]3O)nc12` [PPA-005, (3R,4R)-4-(((3-ethyl-7-((4-(pyridin-2-yl)benzyl)amino)pyrazolo[1,5-a]pyrimidin-5-yl)amino)methyl)piperidin-3-ol], the “Ratio of Biochemical Potency:Cellular Potency” value (from here on “Ratio”) in data set [1] was determined as 30.91. The IC50 in data set [1] (setting [6]) came to 1.1 nM; in data set [1] (setting [7]), 1.1 nM; in data set [4] it was 112 nM; in data set [5] (setting [8]) it was 34 nM; in data set [5] (setting [9]), 34 nM. Further, the “Cyclin K degradation by Western blotting” value in data set [2] is “found to degrade Cyclin K”. Also, the “Cyclin K Degrader Activity (A673 potency shift + MLN4924)” value in data set [3] is “++ (>2 and ≤5 fold change.)”. The “Change of cytotoxic potency” value in data set [3] is on record as “a significant decrease in cytotoxic potency”. In data set [5], the CDK7/CDK12 was 3.3.
In the case of `CN(C)C/C=C/C(=O)Nc1ccc(C(=O)N2CCC[C@@H](Nc3ncc(Cl)c(-c4c[nH]c5ccccc45)n3)C2)cc1` [THZ-531, reference compound], the “Ratio” value in data set [1] is listed as 0.74. Moreover, the IC50 in data set [1] (setting [6]) worked out at 210 nM; in data set [5] (setting [9]) it was 160 nM. For the same molecule, the “Cyclin K degradation by Western blotting” value in data set [2] is “no protesomal dependent Cyclin K degradation”. In data set [3], the “Cyclin K Degrader Activity (A673 potency shift + MLN4924)” value is on record as “− (≤1 fold change.)”.
Take `O[C@H]1CNCC[C@@H]1CNc1cc(NCc2ccc(-c3ccccn3)cc2)n2ncc(C3CC3)c2n1` [PPA-006]: the “Ratio” value in data set [1] came to 14.57. Besides, the IC50 in data set [1] (setting [6]) stood at 3.5 nM; in data set [1] (setting [7]), 3.5 nM; in data set [4] it was 312 nM; in data set [5] (setting [8]), 51 nM; in data set [5] (setting [9]), 51 nM. For the same molecule, the “Cyclin K degradation by Western blotting” value in data set [2] is on record as “found to degrade Cyclin K”. The “Cyclin K Degrader Activity (A673 potency shift + MLN4924)” value in data set [3] is “+++ (>5 fold change.)”. In addition, the “Change of cytotoxic potency” value in data set [3] is “a significant decrease in cytotoxic potency”. The CDK7/CDK12 in data set [5] is given as 6.1.
On to `O[C@H]1CNCC[C@@H]1CNc1cc(NCc2ccc(-n3cccn3)cc2)n2ncc(C3CC3)c2n1` [PPA-009], for which, in data set [1], the “Ratio” value came out at 42.31. In addition, the IC50 amounted to 1.3 nM in data set [1] (setting [6]); 1.3 nM in data set [1] (setting [7]); 212 nM in data set [4]; 55 nM in data set [5] (setting [8]); 55 nM in data set [5] (setting [9]). Moreover, in data set [3], the “Cyclin K Degrader Activity (A673 potency shift + MLN4924)” value was “++ (>2 and ≤5 fold change.)”. Besides, in data set [5], the CDK7/CDK12 is 3.9.
